Measurements: patent publication US8541405B2, “Methods for the preparation of Ivabradine sulfate and form I crystal thereof” (Jiangsu Hengrui Medicine Co., Ltd., priority 2009, dated 2013)
Where a name gives a salt, the structure may show the parent alone.

How the values were obtained:
[1] = Stability test of crystal samples placed open in the air (illumination, heating, humidity), HPLC analysis; assay type: physicochemical; conditions: for HPLC analysis result, 60° C.: heating 60° C.; for HPLC analysis result, 60° C. / HPLC analysis result, RH90% / HPLC analysis result, Light: open in air; for HPLC analysis result, RH90%: humidity RH 90%; for HPLC analysis result, Light: illumination 4500 Lux
Excerpt: The stability investigation of different Ivabradine hydrochloride crystal form: three different solvents crystallization of samples were obtained in turn according to the method of example 4 except that Ivabradine sulfate is substituted with Ivabradine hydrochloride and ethanol is substituted with acetonitrile, ethyl acetate, acetone.
Moreover, α-form crystal samples can be obtained using toluene, N-methyl pyrrole as crystallization solvents according to the method disclosed in CN1583341A.
The four samples obtained above and the form I crystal of Ivabradine sulfate prepared in example 1 were placed opening in the air to test the stability in various conditions including illumination (4500 Lux), heating (60° C.), humidity (RH 90%).

[2] = pH of the Ivabradine sulfate aqueous solution; assay type: physicochemical; conditions: C=1%
Method: (§1) 4.3 g of […] was dissolved in 100 ml of acetone, then 30 ml of acetone containing 1 g of sulfuric acid was added. The obtained mixture was stirred and white crystals were precipitated from the reaction solution. The resulting precipitate was collected by filtration, washed with acetone and then dried at 60° C. in vacuum for 3 hours to obtain 4.8 g of Ivabradine sulfate. Melting point was determined by capillary crystalline approach at 156˜158° C. Water content is 0.8%. The pH of the Ivabradine sulfate aqueous is about 1.8 (C=1%). Yield: 90.5%.
as §1, with “containing 0.4” for “containing 1”, “obtain 1.2” for “obtain 4.8”, “Yield: 55.5%. It is form I crystal of Ivabradine sulfate judged by X-ray and DSC patterns.” for “Yield: 90.5%.”

| HPLC analysis result, 60° C. ([1]; Time 0 day, hydrochloride) [%] | HPLC analysis result, 60° C. ([1]; Time 5 days, hydrochloride) [%] | HPLC analysis result, 60° C. ([1]; Time 10 days, hydrochloride) [%] | HPLC analysis result, RH90% ([1]; Time 0 day, hydrochloride) [%] | HPLC analysis result, RH90% ([1]; Time 5 days, hydrochloride) [%] | HPLC analysis result, RH90% ([1]; Time 10 days, hydrochloride) [%] | HPLC analysis result, Light ([1]; Time 0 day, hydrochloride) [%] | HPLC analysis result, Light ([1]; Time 5 days, hydrochloride) [%] | HPLC analysis result, Light ([1]; Time 10 days, hydrochloride) [%] | other results | SMILES |
| --- | --- | --- | --- | --- | --- | --- | --- | --- | --- | --- |
| 99.55 | 99.31 | 99.12 | 99.55 | 99.10 | 98.42 | 99.55 | 98.88 | 98.07 |  | COc1cc2c(cc1OC)CC(=O)N(CCCN(C)C[C@H]1Cc3cc(OC)c(OC)cc31)CC2 [Ivabradine hydrochloride 20080911, Ivabradine hydrochloride] |
| 99.57 | 99.36 | 99.05 | 99.57 | 99.20 | 98.91 | 99.57 | 99.29 | 98.87 |  | COc1cc2c(cc1OC)CC(=O)N(CCCN(C)C[C@H]1Cc3cc(OC)c(OC)cc31)CC2 [Ivabradine hydrochloride 20080912, Ivabradine hydrochloride] |
|  |  |  |  |  |  |  |  |  | pH of the Ivabradine sulfate aqueous [2]: about 1.8; HPLC analysis result, 60° C. ([1]; Time 0 day): 99.46%; HPLC analysis result, 60° C. ([1]; Time 5 days): 99.42%; HPLC analysis result, 60° C. ([1]; Time 10 days): 99.40%; HPLC analysis result, RH90% ([1]; Time 0 day): 99.46%; HPLC analysis result, RH90% ([1]; Time 5 days): 99.28%; HPLC analysis result, RH90% ([1]; Time 10 days): 99.19%; HPLC analysis result, Light ([1]; Time 0 day): 99.46%; HPLC analysis result, Light ([1]; Time 5 days): 99.42%; HPLC analysis result, Light ([1]; Time 10 days): 99.39%; stability compared with the α-form crystal of Ivabradine hydrochloride ([1]; under high moisture conditions): more stable; stability compared with the α-form crystal of Ivabradine hydrochloride ([1]; under the light and heat condition): similar; stability compared with the polymorphism or mixed crystal of Ivabradine hydrochloride from acetonitrile, ethyl acetate, acetone ([1]; under various conditions): improved significantly | COc1cc2c(cc1OC)CC(=O)N(CCCN(C)C[C@H]1Cc3cc(OC)c(OC)cc31)CC2 [Ivabradine sulfate 20080922, Ivabradine sulfate] |
| 99.56 | 98.74 | 99.04 | 99.56 | 99.03 | 98.61 | 99.56 | 97.45 | 94.91 |  | COc1cc2c(cc1OC)CC(=O)N(CCCN(C)C[C@H]1Cc3cc(OC)c(OC)cc31)CC2 [Ivabradine hydrochloride 20080908, Ivabradine hydrochloride] |
| 99.54 | 99.50 | 99.46 | 99.54 | 99.23 | 99.00 | 99.54 | 99.47 | 99.42 |  | COc1cc2c(cc1OC)CC(=O)N(CCCN(C)C[C@H]1Cc3cc(OC)c(OC)cc31)CC2 [Ivabradine sulfate 20080618, Ivabradine hydrochloride] |
